# Assay results reported in paper PMC7156458, “Synthetic biology based construction of biological activity-related library of fungal decalin-containing diterpenoid pyrones” (Nature Communications, 2020).
# Molecular target: Aβ42 (Homo sapiens, UniProt P05067)
# Test: Th-T (thioflavin-T) assay of Aβ42 aggregation
# Type: biochemical
# Conditions: for Th-T fluorescence, mean of three wells: compound at 50
# Aβ42, sequence (P05067 672-713): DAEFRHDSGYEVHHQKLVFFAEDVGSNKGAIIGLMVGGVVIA
smiles,measurement,setting,value
C=C1CCC2C(C)(CCC=C(C)C)C(O)CCC2(C)C1Cc1c(OC)oc(C)c(C(=O)OC)c1=O (stereo not drawn) [Compound 14],"Th-T fluorescence, mean of three wells",reading M54 of time course,4.776
same,"Th-T fluorescence, mean of three wells",reading M55 of time course,4.689
same,"Th-T fluorescence, mean of three wells",reading M56 of time course,4.625
same,"Th-T fluorescence, mean of three wells",reading M57 of time course,4.524
same,"Th-T fluorescence, mean of three wells",reading M58 of time course,4.45
same,"Th-T fluorescence, mean of three wells",reading M59 of time course,4.296
same,"Th-T fluorescence, mean of three wells",reading M60 of time course,4.2063
same,"Th-T fluorescence, mean of three wells",reading M61 of time course,4.042
same,"Th-T fluorescence, mean of three wells",reading M62 of time course,3.946
same,"Th-T fluorescence of Aβ42 with compound, mean of three wells (Fig. 7a source data)","concentration 10, unit not given, time-course reading M129",2.897
same,"Th-T fluorescence of Aβ42 with compound, mean of three wells (Fig. 7a source data)","concentration 10, unit not given, time-course reading M130",2.933
same,"Th-T fluorescence of Aβ42 with compound, mean of three wells (Fig. 7a source data)","concentration 10, unit not given, time-course reading M131",2.925
same,"Th-T fluorescence of Aβ42 with compound, mean of three wells (Fig. 7a source data)","concentration 10, unit not given, time-course reading M132",2.913
same,"Th-T fluorescence of Aβ42 with compound, mean of three wells (Fig. 7a source data)","concentration 10, unit not given, time-course reading M133",2.914
same,"Th-T fluorescence of Aβ42 with compound, mean of three wells (Fig. 7a source data)","concentration 10, unit not given, time-course reading M134",2.928
same,"Th-T fluorescence of Aβ42 with compound, mean of three wells (Fig. 7a source data)","concentration 10, unit not given, time-course reading M135",2.926
same,"Th-T fluorescence of Aβ42 with compound, mean of three wells (Fig. 7a source data)","concentration 10, unit not given, time-course reading M136",2.935
same,"Th-T fluorescence of Aβ42 with compound, mean of three wells (Fig. 7a source data)","concentration 10, unit not given, time-course reading M137",2.902
same,"Th-T fluorescence of Aβ42 with compound, mean of three wells (Fig. 7a source data)","concentration 10, unit not given, time-course reading M138",2.929
same,"Th-T fluorescence of Aβ42 with compound, mean of three wells (Fig. 7a source data)","concentration 10, unit not given, time-course reading M139",2.934
same,"Th-T fluorescence of Aβ42 with compound, mean of three wells (Fig. 7a source data)","concentration 10, unit not given, time-course reading M140",2.924
same,"Th-T fluorescence of Aβ42 with compound, mean of three wells (Fig. 7a source data)","concentration 10, unit not given, time-course reading M141",2.927
same,"Th-T fluorescence of Aβ42 with compound, mean of three wells (Fig. 7a source data)","concentration 10, unit not given, time-course reading M142",2.953
same,"Th-T fluorescence of Aβ42 with compound, mean of three wells (Fig. 7a source data)","concentration 10, unit not given, time-course reading M143",2.943
same,"Th-T fluorescence of Aβ42 with compound, mean of three wells (Fig. 7a source data)","concentration 10, unit not given, time-course reading M144",2.936
same,"Th-T fluorescence of Aβ42 with compound, mean of three wells (Fig. 7a source data)","concentration 10, unit not given, time-course reading M145",2.952
same,"Th-T fluorescence of Aβ42 with compound, mean of three wells (Fig. 7a source data)","concentration 20, unit not given, time-course reading M129",1.587
same,"Th-T fluorescence of Aβ42 with compound, mean of three wells (Fig. 7a source data)","concentration 20, unit not given, time-course reading M130",1.596
same,"Th-T fluorescence of Aβ42 with compound, mean of three wells (Fig. 7a source data)","concentration 20, unit not given, time-course reading M131",1.618
same,"Th-T fluorescence of Aβ42 with compound, mean of three wells (Fig. 7a source data)","concentration 20, unit not given, time-course reading M132",1.578
same,"Th-T fluorescence of Aβ42 with compound, mean of three wells (Fig. 7a source data)","concentration 20, unit not given, time-course reading M133",1.602
same,"Th-T fluorescence of Aβ42 with compound, mean of three wells (Fig. 7a source data)","concentration 20, unit not given, time-course reading M134",1.594
same,"Th-T fluorescence of Aβ42 with compound, mean of three wells (Fig. 7a source data)","concentration 20, unit not given, time-course reading M135",1.594
same,"Th-T fluorescence of Aβ42 with compound, mean of three wells (Fig. 7a source data)","concentration 20, unit not given, time-course reading M136",1.5818
same,"Th-T fluorescence of Aβ42 with compound, mean of three wells (Fig. 7a source data)","concentration 20, unit not given, time-course reading M137",1.578
same,"Th-T fluorescence of Aβ42 with compound, mean of three wells (Fig. 7a source data)","concentration 20, unit not given, time-course reading M138",1.586
same,"Th-T fluorescence of Aβ42 with compound, mean of three wells (Fig. 7a source data)","concentration 20, unit not given, time-course reading M139",1.563
same,"Th-T fluorescence of Aβ42 with compound, mean of three wells (Fig. 7a source data)","concentration 20, unit not given, time-course reading M140",1.578
same,"Th-T fluorescence of Aβ42 with compound, mean of three wells (Fig. 7a source data)","concentration 20, unit not given, time-course reading M141",1.561
same,"Th-T fluorescence of Aβ42 with compound, mean of three wells (Fig. 7a source data)","concentration 20, unit not given, time-course reading M142",1.586
same,"Th-T fluorescence of Aβ42 with compound, mean of three wells (Fig. 7a source data)","concentration 20, unit not given, time-course reading M143",1.575
same,"Th-T fluorescence of Aβ42 with compound, mean of three wells (Fig. 7a source data)","concentration 20, unit not given, time-course reading M144",1.583
same,"Th-T fluorescence of Aβ42 with compound, mean of three wells (Fig. 7a source data)","concentration 20, unit not given, time-course reading M145",1.572
same,"Th-T fluorescence of Aβ42 with compound, mean of three wells (Fig. 7a source data)","concentration 50, unit not given, time-course reading M129",0.8842
same,"Th-T fluorescence of Aβ42 with compound, mean of three wells (Fig. 7a source data)","concentration 50, unit not given, time-course reading M130",0.8634
same,"Th-T fluorescence of Aβ42 with compound, mean of three wells (Fig. 7a source data)","concentration 50, unit not given, time-course reading M131",0.8505
same,"Th-T fluorescence of Aβ42 with compound, mean of three wells (Fig. 7a source data)","concentration 50, unit not given, time-course reading M132",0.8369
same,"Th-T fluorescence of Aβ42 with compound, mean of three wells (Fig. 7a source data)","concentration 50, unit not given, time-course reading M133",0.8131
same,"Th-T fluorescence of Aβ42 with compound, mean of three wells (Fig. 7a source data)","concentration 50, unit not given, time-course reading M134",0.8297
same,"Th-T fluorescence of Aβ42 with compound, mean of three wells (Fig. 7a source data)","concentration 50, unit not given, time-course reading M135",0.8031
same,"Th-T fluorescence of Aβ42 with compound, mean of three wells (Fig. 7a source data)","concentration 50, unit not given, time-course reading M136",0.8035
same,"Th-T fluorescence of Aβ42 with compound, mean of three wells (Fig. 7a source data)","concentration 50, unit not given, time-course reading M137",0.7873
same,"Th-T fluorescence of Aβ42 with compound, mean of three wells (Fig. 7a source data)","concentration 50, unit not given, time-course reading M138",0.78
same,"Th-T fluorescence of Aβ42 with compound, mean of three wells (Fig. 7a source data)","concentration 50, unit not given, time-course reading M139",0.7658
same,"Th-T fluorescence of Aβ42 with compound, mean of three wells (Fig. 7a source data)","concentration 50, unit not given, time-course reading M140",0.7572
same,"Th-T fluorescence of Aβ42 with compound, mean of three wells (Fig. 7a source data)","concentration 50, unit not given, time-course reading M141",0.7413
same,"Th-T fluorescence of Aβ42 with compound, mean of three wells (Fig. 7a source data)","concentration 50, unit not given, time-course reading M142",0.7418
